Where a SMILES comes first, the peptide text is derived from it.
System: Fe65
Test: Western blot, Fe65 level in brain
Format: in vivo, mouse
Details: APP/PS1 mice; 5 mg∙kg^−1 i.p., five days per week, six months; HC and CTX
Procedure: For this study, three-month-old male and female WT and APP/PS1 mice (n = 37) were used. Four groups were defined: WT-vehicle (physiological saline) (male n = 4; female n = 6), WT-P33 (male n = 6; female n = 5), APP/PS1-vehicle (male n = 3; female n = 5), and APP/PS1-P33 (male n = 6; female n = 2). Animals were subjected to intraperitoneal (i.p.) injections of P33 (5 mg∙kg^−1) for five days per week, over a course of six months. The mice were kept in groups under constant temperature (23 ± 0.5 °C), lighting (12-h/12-h light/dark cycle, lights on at 7:00 a.m.), and humidity (~50%). Standard mouse chow and tap water were supplied ad libitum. All behavioral experiments were performed in the light period. Handling was done daily at the same time.
Nine-month-old mice (three animals per group) were euthanized via cervical dislocation. […] To quantify the level of Aβ in the mice, we used a sandwich ELISA Kit (Innotest Amyloid-[…]) from Innogenetics (Gent, Belgium), following the instructions of the manufacturer. The absorbance values were measured at 450 nm on a 96-well plate reader (NOVOstar OPTIMA, BMG Labtech, Offenburg, Germany). […]
The results of spine density and immunohistochemistry experiments were calculated with one-way ANOVA followed by Fisher’s LSD post hoc tests. […] Data were analyzed with SPSS (IBM SPSS Statistics 24), and were expressed as the mean ± standard error of the mean (SEM). […]

C[C@@H](N)C(=O)N1CCC[C@@H]1C(=O)N[C@H](C)C(=O)N1CCC[C@@H]1C(=O)N[C@H](CCC(=O)O)C(N)=O [P33] (HELM PEPTIDE1{[dA].[dP].[dA].[dP].[dE].[am]}$$$$V2.0)
Fe65 level, effect of P33 (in words): could not be considerably changed by the treatment with P33

From article PMC6627374, “Effects of the Pentapeptide P33 on Memory and Synaptic Plasticity in APP/PS1 Transgenic Mice: A Novel Mechanism Presenting the Protein Fe65 as a Target” (International Journal of Molecular Sciences, 2019)
